The record followed here is patent publication US9724334B1, “Method for treating a neurodegenerative disease or depression comprising administering derivatives of 2-amino-2-(1-dodecyl-1H-1,2,3-triazol-4-yl)propane-1,3-diol” (Kyungpook National University Industry-Academic Cooperation …, priority 2016, dated 2017).

Assay [1] has as its target T1, ASM (acid sphingomyelinase) (Homo sapiens, UniProt P17405).
T1 construct: fibroblasts (PS1 fibroblasts) derived from Alzheimer's disease patients, followed by the measurement of the change of ASM activity; host or cells: human fibroblast cell lines (PS1, from Alzheimer's disease patients)
T1 sequence (P17405 47-631): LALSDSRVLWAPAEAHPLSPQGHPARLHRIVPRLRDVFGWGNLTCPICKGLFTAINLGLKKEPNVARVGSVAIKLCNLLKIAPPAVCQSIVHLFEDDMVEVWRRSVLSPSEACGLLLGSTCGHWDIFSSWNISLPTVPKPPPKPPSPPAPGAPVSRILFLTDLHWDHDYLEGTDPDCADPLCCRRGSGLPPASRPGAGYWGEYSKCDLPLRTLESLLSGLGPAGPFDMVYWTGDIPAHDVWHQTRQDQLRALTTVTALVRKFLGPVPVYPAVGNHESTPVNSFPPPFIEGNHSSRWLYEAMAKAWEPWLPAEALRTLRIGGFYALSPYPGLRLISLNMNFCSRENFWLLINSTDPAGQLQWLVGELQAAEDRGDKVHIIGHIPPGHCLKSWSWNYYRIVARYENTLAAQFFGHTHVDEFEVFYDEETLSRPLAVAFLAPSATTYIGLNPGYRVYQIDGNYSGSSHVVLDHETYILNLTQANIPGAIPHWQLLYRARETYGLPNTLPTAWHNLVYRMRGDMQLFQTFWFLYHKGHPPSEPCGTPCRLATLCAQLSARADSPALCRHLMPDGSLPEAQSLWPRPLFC
In words: ASM activity in fibroblasts derived from Alzheimer's disease patients (PS1 fibroblasts). Type of assay: cell-based. Also noted: dose or concentration left out as unconfirmed. As to conditions: for change of ASM activity: PS1 fibroblasts with increased ASM activity, versus untreated PS1 fibroblasts. The procedure: Human fibroblast cell lines (normal and PS1) were obtained from Coriell Institute and cultured in DMEM containing 15% FBS under the condition of 5% CO2 at 37° C. Subsequently, the cell lines were treated with the ASM inhibitory compound of the Chemical Formula 1, amitriptyline (AMI) and FTY720, followed by measuring the change of ASM activity. The concentration levels of ASM were measured as follows. Specifically, a microliter mouse plasma, brain tissue and 3 μl of fibroblast samples were mixed with ASM activity buffer and stored at 37° C. 114 μl of ethanol was added to terminate the hydrolysis reaction, followed by centrifugation. 30 μl of the supernatant was transferred to a glass vial, of which 5 μl was applied to the UPLC system. The ASM concentration levels were quantified by comparison with Bodipy (aminoacetaldehyde) conjugated with sphingomyelin and ceramide. Extraction and quantification of the sphingomyelin and ceramide were performed by extracting lipids from known method samples and resuspending the dried lipid extract in 25 μl of 0.2% Igepal CA-630 (Sigma-Aldrich). Each lipid level was quantified using the UPLC system. In order to confirm the ASM inhibitory effect of the compound developed according to the present invention, the ASM inhibitory compound of the Chemical Formula 2, AMI and FTY720 were treated […] concentration, respectively, in the fibroblasts (PS1 fibroblasts) derived from Alzheimer's disease patients, followed by the measurement of the change of ASM activity.

In assay [2] the test system is APP/PS1 mice. In words: Amyloid-β deposition in brain of APP/PS1 mice (thioflavin S staining, Aβ40 and Aβ42 immunofluorescence). The format is in vivo, mouse. As to conditions: 100 mg/kg/day via drinking water; for Aβ40 deposition / Aβ42 deposition: brain tissue immunofluorescence; for Aβ40 deposition / Aβ42 deposition / fibrillary Aβ deposition (thioflavin S): versus APP/PS1 mice; for fibrillary Aβ deposition (thioflavin S): cerebral cortex and hippocampus. From the text:
IACUC (Kyungpook National University Institutional Animal Care and Use Committee) approved the present mouse experiment. A transgenic mouse line overexpressing APPswe (hAPP695swe) or PS1 (presenilin-1M146V) was used based on C57BL/6 mouse (Charles River, UK) (hereinafter, APP mouse: APPswe-overexpressing mouse, PS1 mouse: presenilin-1M146V overexpressing mouse; GlaxoSmithKline).
(§1) To confirm the therapeutic effect of the novel ASM inhibitory compounds, the novel ASM inhibitory compound or AMI were fed via drinking water at a dose of 100 mg/kg/day to mice at 5.5 months of age. Three months after the feeding, behavioral analysis on the mice was performed, followed by sampling of mouse brain tissues (FIG. 3).
After fixing the cerebrum and hippocampus of the test mice, 0.5% thioflavin S (Sigma-Aldrich), anti-20G10 antibodies (Mouse, 1:1000) against Aβ, 42 and anti-G30 antibodies (rabbit, 1:1000) against Aβ, 40, anti-GFAP antibodies (rabbit, 1:500, DAKO) were cultured together. The above sites were analyzed using a laser scanning confocal microscope equipped with Fluoview SV1000 imaging software (Olympus FV1000, Japan) or an Olympus BX51 microscope. Percentage of area of stained area to total tissue area was quantified and analyzed using Metamorph software (Molecular Devices).
In order to confirm the effect of the novel ASM inhibitory compound of the Chemical Formula 2 on the lesion of Alzheimer's disease, the ASM inhibitory compound of the Chemical Formula 2 and AMI were administered orally for four months, respectively, as shown in FIG. 3.
To begin with, the profile of Aβ of Alzheimer's disease was identified. First, according to known methods in the art, the cerebral cortex and hippocampus of the mice were stained with thioflavin S (ThioS), confirming the fibrillary amyloid-β deposition. In addition, amyloid-β deposition was confirmed by carrying out the Aβ40 and Aβ42 immunofluorescence.

Assay [3] deals with APP/PS1 mice. In words: Morris water maze (MWM), learning and memory in APP/PS1 mice. The format is in vivo, mouse. Particulars: 100 mg/kg/day via drinking water; for spatial memory, cognitive and memory formation disability: versus unfed APP/PS1 mice. As to the method: as §1
Morris water maze (MWM) and fear conditioning experiments were conducted to identify potential effects on learning and memory. For MWM, the mice were learned the task four times a day for 10 days, followed by the removal of the platform at the 11th day and subsequently a probe trial. On the first day of the fear conditioning, the mice were placed in the conditioning chamber and subjected to sound stimulation (10 kHz, 70 dB) and electrical stimulation (0.3 mA, 1s). On the second day, their memory was checked without stimulation in the same conditioning chamber as on the first day. On the third day, memory tests were conducted for fear when only sound stimulation was given in another conditioning chamber. Open field tests and dark & light tests were conducted to assess activity and anxiety. In the open field test, the mice were placed in a square box for 10 minutes to measure their overall activity and time spent wandering the wall and center. In the dark & light test, the mice were placed in a rectangular box composed of a dark box and a bright box for 10 minutes to measure the time spent in each box, the number of round trips, and the time when the mice entered the bright box for the first time.
In order to determine the potential effect of the novel ASM inhibitory compound of the present invention on learning and cognition in the animal models of Alzheimer's disease, the MWM (Morris water maze) and the fear conditioning test were performed, respectively.

Take `CN(C)CCC=C1c2ccccc2CCc2ccccc21` [AMI, amitriptyline, reference compound]: the “change of ASM activity” value in assay [1] is reported as “markedly reduced”. For the same compound, in assay [2], the Aβ40 deposition entry is “significantly lower”, the Aβ42 deposition result is recorded as “significantly lower” and the “fibrillary Aβ deposition (thioflavin S)” value is recorded as “significantly lower”. In assay [3], the “spatial memory, cognitive and memory formation disability” value is “improved”.
`CCCCCCCCCCCCn1cc(C(N)(CO)CO)nn1` [Chemical Formula 2, 2-amino-2-(1-dodecyl-1H-1,2,3-triazol-4-yl)propane-1,3-diol]: the “ASM inhibitory effect compared with the other substances (AMI, FTY720)” value in assay [1] (PS1 fibroblasts) is on record as “more remarkably effective in inhibiting ASM activity than the other substances”. Also, the “change of ASM activity” value in assay [1] is given as “markedly reduced”. In assay [2], the “amyloid-β deposition compared with mice treated with AMI” value was “more remarkably reduced”, the Aβ40 deposition entry is “significantly lower”, the Aβ42 deposition result is reported as “significantly lower” and the “fibrillary Aβ deposition (thioflavin S)” value was “significantly lower”. Also, in assay [3], the “cognitive improvement compared with AMI” value is reported as “more pronounced”; the “spatial memory, cognitive and memory formation disability” value is on record as “improved”.
